Assay results as given in the supplement of paper PMC11208160.

Assay: recombinant barcode read abundance after kanamycin selection (control-corrected) (log10(CPM+1)); higher = more efficient recombination; sequences stand for … in AGTGCAGAGAAAATCGGCCAGTTTTCTCTGCCTGCAGTCCGCATGCCGT…AGATTTATGCAGCGGACTGCCTTTCTCCCAAAGTGATAAACCGGACAGTATCATGGACCGGTTTTCCCGGTAATCCGTATTTGCAAGGTTGGTTTCACT; site = the 11-nt target
Method in brief: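 A promoter, a target, a barcode and the first 104 bridge RNA bases under J23119 made up each oligo. Oligos were Gibson-cloned into a vector bearing the other 73 bp and a T7-inducible recombinase, then co-electroporated into E. coli with a donor plasmid and plated in duplicate on chloramphenicol/ampicillin LB agar (control) or chloramphenicol/ampicillin/kanamycin with 0.1 mM IPTG. Recombination efficiency is the averaged, control-corrected counts per million of recombinant-junction barcodes. Reported values are log10(CPM+1).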
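Also: IS621 recombinase and bridge RNA in Escherichia coli cells.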

Sequence | recombinant barcode read abundance (log10)
CTAGTAGCTTGGGTTCTAACCTGTTGCGG (site CTAGTAGCTCC) | 1.56
AGTCTCCCTTGGGTTCTAACCTGTTGCCT (site AGTCTCCCTAG) | 1.56
AGAACTCCTTGGGTTCTAACCTGTTGCTG (site AGAACTCCTCA) | 0.323
TCTACGTCTTGGGTTCTAACCTGTTGCCT (site TCTACGTCTAG) | 0.168
GTGTACCCTTGGGTTCTAACCTGTTGCCT (site GAGTACCCTAG) | 0.64
TATACTGCTTGGGTTCTAACCTGTTGCCT (site TATACTGCTAG) | 0.0304
TACATTCCTTGGGTTCTAACCTGTTGCCT (site GACATTCCTAG) | 0.179
TGCTGTCCTTGGGTTCTAACCTGTTGCCT (site TGCTGTGCTAG) | 0.139
ATATGAGCTTGGGTTCTAACCTGTTGCCG (site ATATGTGCTCG) | 0.167
GAGCATACTTGGGTTCTAACCTGTTGCCT (site GAGCATACTAG) | 1.62
GTGTCATCTTGGGTTCTAACCTGTTGCCT (site GTGTCACCTAG) | 0.0183
TCCGATACTTGGGTTCTAACCTGTTGCGT (site GTGTGGCCTTG) | 0.11
ATGATACCTTGGGTTCTAACCTGTTGCCT (site ATGATACCTAG) | 1.84
GACGCCTCTTGGGTTCTAACCTGTTGCCT (site AACGCCTCTAG) | 0.227
ATTGGGGCTTGGGTTCTAACCTGTTGCAG (site ATTGGGGCTCT) | 2.38
CGTAGACCTTGGGTTCTAACCTGTTGCTA (site CGTAGACCTTA) | 0.216
TATGGGTCTTGGGTTCTAACCTGTTGCCT (site TATGGGTCTAG) | 1.04
TAACGTACTTGGGTTCTAACCTGTTGCAT (site TAACGTACTAT) | 0.696
ACTAGTCCTTGGGTTCTAACCTGTTGCTT (site ACTAGTCCTAC) | 0.143
GAGGGCCCTTGGGTTCTAACCTGTTGCTG (site GAGGGCCCTCT) | 1.56
TGTCCCTCTTGGGTTCTAACCTGTTGCCT (site TGTACCTCTAG) | 0.014
GCACTCTCTTGGGTTCTAACCTGTTGCCT (site GCACGCTCTAG) | 0.101

Sequence | recombinant barcode read abundance (log10)
TGTACCTCTTGGGTTCTAACCTGTTGCCT (site TGTCCCTCTAG) | 0.00782
GAAACTCCTTGGGTTCTAACCTGTTGCCT (site GAAACTCCTAG) | 0.352
TACTTCCCTTGGGTTCTAACCTGTTGCGT (site TACTTCTCTAG) | 0.0128
TAGAAGGCTTGGGTTCTAACCTGTTGCAT (site TAGAAGGCTAG) | 0.161
GTAACCTCTTGGGTTCTAACCTGTTGCCT (site GTAACCTCTAG) | 1.92
CTCGAACCTTGGGTTCTAACCTGTTGCTG (site CTCGAACCTCA) | 1.93
AGGATAACTTGGGTTCTAACCTGTTGCCT (site AGGATAACTAG) | 0.655
CGCTGTCCTTGGGTTCTAACCTGTTGCTT (site CGCTGTCCTAA) | 0.176
ATTTGTACTTGGGTTCTAACCTGTTGCCT (site ATTTGGACTAG) | 0
ACGCGAGCTTGGGTTCTAACCTGTTGCGG (site ACGCGAGCTCC) | 0.954
CTGAGTTCTTGGGTTCTAACCTGTTGCCA (site CTGAGTTCTTG) | 0.0274
GATCAACCTTGGGTTCTAACCTGTTGCCT (site GTTCAACCTAG) | 0.235
GGACCTCCTTGGGTTCTAACCTGTTGCTT (site GGACCTCCTAT) | 1.32
CACGAGACTTGGGTTCTAACCTGTTGCCT (site CACGAGCCTAG) | 0.0856
TCCCAGTCTTGGGTTCTAACCTGTTGCCT (site TCCCAGTCTAA) | 0.0986
GACTGGTCTTGGGTTCTAACCTGTTGCCT (site GACTGGTCTAG) | 1.45
TAGTCCACTTGGGTTCTAACCTGTTGCTA (site AAGTCCACTAA) | 0.239
GGTTGGCCTTGGGTTCTAACCTGTTGCGG (site GGTTGCCCTCC) | 0.0622
CTCCTCTCTTGGGTTCTAACCTGTTGCAT (site AAGTGAGCTTG) | 0.0369
CTCCGGACTTGGGTTCTAACCTGTTGCCT (site CTCCGTACTAG) | 0.276
TCCTACTCTTGGGTTCTAACCTGTTGCCG (site TCCGACTCTCG) | 0.0792
TCTCCGCCTTGGGTTCTAACCTGTTGCCT (site TCTCGGCCTAG) | 0.0901

Sequence | recombinant barcode read abundance (log10)
GTGCACTCTTGGGTTCTAACCTGTTGCGG (site GTGCACACTCC) | 0
CTGATTACTTGGGTTCTAACCTGTTGCCT (site CTGATTACTAG) | 0.21
TTGGGTCCTTGGGTTCTAACCTGTTGCGT (site TTGGGTCCTAC) | 3.32
ATAAGCTCTTGGGTTCTAACCTGTTGCCT (site TTAAGCTCTAG) | 0.766
TAGCTCACTTGGGTTCTAACCTGTTGCAT (site TAGGTCACTAT) | 0.181
TTCTGGGCTTGGGTTCTAACCTGTTGCCT (site TTCTGCGCTAG) | 0.0493
TGAATGTCTTGGGTTCTAACCTGTTGCCT (site TGAAAGTCTAG) | 0.0491
GGACGTCCTTGGGTTCTAACCTGTTGCCT (site GGACGCCCTAG) | 0.369
AATACCTCTTGGGTTCTAACCTGTTGCCT (site ATTACCTCTAG) | 0.0243
GGTATAACTTGGGTTCTAACCTGTTGCCA (site ACACCCTCTCT) | 0.124
CTCGGACCTTGGGTTCTAACCTGTTGCCT (site CTCGGATCTAG) | 0.263
TCTCTGCCTTGGGTTCTAACCTGTTGCCT (site TCTCTGCCTAG) | 0.208
ATTAACTCTTGGGTTCTAACCTGTTGCCT (site CGAGTGACTCT) | 0.0163
ACACTGTCTTGGGTTCTAACCTGTTGCGG (site ACAGTGTCTCC) | 0.379
GCCTCGTCTTGGGTTCTAACCTGTTGCCT (site GCGTCGTCTAG) | 0.206
TTACGCTCTTGGGTTCTAACCTGTTGCTA (site GGTTATCCTCC) | 0.191
TCTCCGCCTTGGGTTCTAACCTGTTGCCT (site TCTCCGCCTAG) | 0.431
AGTCAGACTTGGGTTCTAACCTGTTGCAC (site AGTCAGACTGT) | 1.19
CTCTAGTCTTGGGTTCTAACCTGTTGCTT (site CTCTAGTCTAG) | 0.377
TTGGGGTCTTGGGTTCTAACCTGTTGCCT (site GTAGGGTCTAG) | 0.155
TAGCACCCTTGGGTTCTAACCTGTTGCCC (site TAGCACCCTCG) | 0.642
GCAATGACTTGGGTTCTAACCTGTTGCCT (site GGAATGACTAG) | 0.105
